Tested on: conjunctiva (eosinophils, neutrophils, mast cell degranulation)
Details: conjunctiva examined two hours after ovalbumin
Description: 72 hours after the rats have been sensitized by injecting antiserum into the eyelids of the test animals, a fresh provocation was induced in them by intravenous administration of ovalbumin. Some of the experimental animals were pretreated by the administration of solution containing epinastine according to the invention into the conjunctival sac 15 minutes before the ovalbumin is administered. Two hours after the administration of ovalbumin the experimental animals were killed and the conjunctiva was investigated for its content of eosinophils and neutrophils and the mast cell granulation was determined.

[1] = epinastine solution into the conjunctival sac 15 minutes before i.v. ovalbumin, p<0.01

## NC1=NCC2c3ccccc3Cc3ccccc3N12 (stereo not drawn) [epinastine, 3-amino-9,13b-dihydro-1H-dibenz-[c,f]imidazol[1,5-a]azepine]
Epinastine solution 0.05-0.5% into the conjunctival sac 15 minutes before i.v. ovalbumin
  content of eosinophils in conjunctiva: significantly lower
[1]
  content of lymphocytes in conjunctiva: significantly lower
  inhibition of mast cell degranulation: roughly 35%

From patent publication US7429602B2, “Treating conjunctivitis by topically administering an epinastine solution to the conjunctiva” (Boehringer Ingelheim Pharma GmbH & Co. Kg, priority 1999, dated 2008)
